Assay results taken from patent US11453677B2 (priority 2016, dated 2022).

What was measured:
Experiment in all cases: cells
Format in all cases: cell-based
[1] = tested on: influenza A virus minigenome (PB2, PB1, PA, NP) RNP_Alaska in 293T cells; settings: HEK-293T, 48 h, read-out: RNP_Alaska EC50
[2] = tested on: influenza A virus minigenome (PB2, PB1, PA, NP) RNP_CAL in 293T cells; settings: HEK-293T, 48 h, read-out: RNP_CAL_EC50
[3] = tested on: influenza virus minigenome (PB2, PB1, PA, NP) RNP_Hubei in 293T cells; settings: unidentified influenza virus, HEK-293T, 48 h, read-out: RNP_Hubei EC50

Compound	EC50 [1]	EC50 [2]	EC50 [3]
Cc1ccccc1[C@H](c1ccc(F)cc1)[C@H]1Cn2c(CO)cnc2-c2c(O)c(=O)cnn21 [Example 51, (S)-6-((S)-(4-fluorophenyl)(o-tolyl)methyl)-11-hydroxy-3-(hydroxymethyl)-5,6-dihydro-10H-imidazo[2′,1′:3,4]pyrazino[1,2-b]pyridazin-10-one]	230 nM	90 nM	160 nM
CC(=O)Oc1c2n(ncc1=O)[C@@H](C(c1ccc(F)cc1)c1ccc(F)cc1)Cn1ccnc1-2 [Example 85, (S)-6-(bis(4-fluorophenyl)methyl)-10-oxo-5,6-dihydro-10H-imidazo[2′,1′:3,4]pyrazino[1,2-b]pyridazin-11-yl acetate]	19 nM	22 nM	49 nM
COC(=O)OCOc1c2n(ncc1=O)[C@@H](C(c1ccc(F)cc1)c1ccc(F)cc1)Cn1ccnc1-2 [Example 88, (S)-((6-(bis(4-fluorophenyl)methyl)-10-oxo-5,6-dihydro-10H-imidazo[2′,1′:3,4]pyrazino[1,2-b]pyridazin-11-yl)oxy)methyl methyl Carbonate]	32 nM	42 nM	89 nM
Cc1cnc2n1C[C@H](C(c1ccccc1)c1ccccc1)n1ccc(=O)c(O)c1-2 [Example 13, (S)-6-benzhydryl-11-hydroxy-3-methyl-5H-imidazo[1,2-a]pyrido[2,1-c]pyrazin-10(6H)-one]	570 nM	310 nM	300 nM
O=c1ccn2c(c1O)-c1ncc(-c3ccccc3)n1C[C@@H]2C(c1ccccc1)c1ccccc1 [Example 53, (S)-6-benzhydryl-11-hydroxy-3-phenyl-5H-imidazo [1,2-a] pyrido[2,1-c]pyrazin-10(6H)-one]	540 nM	3000 nM	190 nM
O=c1cnn2c(c1O)-c1nccn1C[C@@H]2[C@@H](c1ccc(F)cc1)c1ccc(F)c(F)c1 [Example 25, (S)-6-((S)-(3,4-difluorophenyl)(4-fluorophenyl)methyl)-11-hydroxy-5H-imidazo[2′,1′:3,4]pyrazino[1,2-b]pyridazin-10(6H)-one]	62 nM	56 nM	100 nM
Cc1ccccc1[C@H](c1ccc(F)cc1Br)[C@H]1Cn2ccnc2-c2c(O)c(=O)cnn21 [Example 35, (S)-6-((R)-(2-bromo-4-fluorophenyl)(o-tolyl)methyl)-11-hydroxy-5,6-dihydro-10H-imidazo[2′,1′:3,4]pyrazino[1,2-b]pyridazin-10-one]	98 nM	50 nM	110 nM
O=c1ccn2c(c1O)-c1ncc(CN3CCSCC3)n1C[C@@H]2C(c1ccccc1)c1ccccc1 [Example 62, (S)-6-benzhydryl-11-hydroxy-3-(thiomorpholinomethyl)-5,6-dihydro-10H-imidazo[1,2-a]pyrido[2,1-c]pyrazin-10-one]	1900 nM	640 nM	1500 nM
O=c1cnn2c(c1O)-c1nccn1C[C@@H]2[C@H](c1ccc(F)cc1)c1ccc(F)cc1Br [Example 39, (S)-6-((R)-(2-bromo-4-fluorophenyl)(4-fluorophenyl)methyl)-11-hydroxy-5,6-dihydro-10H-imidazo[2′,1′:3,4]pyrazino[1,2-b]pyridazin-10-one]	25 nM	33 nM	53 nM
O=c1cnn2c(c1O)-c1nccn1C[C@@H]2[C@@H](c1ccc(F)cc1)c1cc(F)cc(F)c1 [Example 34, (S)-6-((S)-(3,5-difluorophenyl)(4-fluorophenyl)methyl)-11-hydroxy-5H-imidazo[2′,1′:3,4]pyrazino[1,2-b]pyridazin-10(6H)-one]	33 nM	25 nM	34 nM
O=c1ccn2c(c1O)-c1ncoc1CN2C(c1ccccc1)c1ccccc1 [Example 83, 5-benzhydryl-10-hydroxy-4,5-dihydro-9H-oxazolo[4,5-d]pyrido[1,2-b]pyridazin-9-one]	960 nM	970 nM	730 nM
O=c1cnn2c(c1O)-c1nccn1C[C@@H]2[C@@H](c1ccccc1)c1ccc(F)cc1 [Example 18, (S)-6-((S)-(4-fluorophenyl)(phenyl)methyl)-11-hydroxy-5,6-dihydro-10H-imidazo[2′,1′:3,4]pyrazino[1,2-b]pyridazin-10-one]	130 nM	130 nM	160 nM
O=c1cnn2c(c1O)-c1nccn1C[C@@H]2C(c1cccc(F)c1)c1cccc(F)c1 [Example 23, (S)-6-(bis(3-fluorophenyl)methyl)-11-hydroxy-5,6-dihydro-10H-imidazo[2′,1′:3,4]pyrazino[1,2-b]pyridazin-10-one]	23 nM	39 nM	36 nM
O=c1ccn2c(c1O)-c1nccn1C1(COC1)N2C1c2ccccc2CSc2ccccc21 (stereo not drawn) [Example 80, 6-(6,11-dihydrodibenzo[b,e]thiepin-11-yl)-11-hydroxy-6H,10H-spiro[imidazo[1,2-d]pyrido[2,1-f][1,2,4]triazine-5,3′-oxetan]-10-one]	170 nM	10 nM	27 nM
O=c1cnn2c(c1O)-c1nccn1C[C@@H]2[C@H](c1ccc(F)cc1)c1ccc(C(F)(F)F)nc1 [Example 20, (S)-6-((R)-(4-fluorophenyl)(6-(trifluoromethyl)pyridin-3-yl)methyl)-11-hydroxy-5,6-dihydro-10H-imidazo[2′,1′:3,4]pyrazino[1,2-b]pyridazin-10-one]	690 nM	720 nM	740 nM
O=c1ccn2c(c1O)-c1ncc(Cl)n1C[C@@H]2C(c1ccccc1)c1ccccc1 [Example 5, (S)-6-Benzhydryl-3-chloro-11-hydroxy-5,6-dihydro-10H-imidazo[1,2-a]pyrido[2,1-c]pyrazin-10-one]	220 nM	100 nM	180 nM
O=c1cnn2c(c1O)-c1nccn1CC2C(c1ccc(Cl)cc1)c1ccc(Cl)cc1 (stereo not drawn) [Example 10, 6-(bis(4-chlorophenyl)methyl)-11-hydroxy-5H-imidazo[2′,1′:3,4]pyrazino[1,2-b]pyridazin-10(6H)-one]	290 nM	320 nM	820 nM
O=c1ccn2c(c1O)-c1nccn1CN2C(c1ccccc1)c1ccccc1 [Example 6, 6-benzhydryl-11-hydroxy-5H-imidazo[1,2-d]pyrido[2,1-f][1,2,4]triazin-10(6H)-one]	150 nM	190 nM	100 nM
O=c1ccn2c(c1O)-c1ocnc1CN2C(c1ccccc1)c1ccccc1 [Example 84, 5-benzhydryl-10-hydroxy-4,5-dihydro-9H-oxazolo[5,4-d]pyrido[1,2-b]pyridazin-9-one]	14000 nM	11000 nM	16000 nM
N#Cc1ccccc1[C@H](c1ccc(F)cc1)[C@H]1Cn2ccnc2-c2c(O)c(=O)cnn21 [Example 44, 2-((S)-(4-fluorophenyl)((S)-11-hydroxy-10-oxo-5,6-dihydro-10H-imidazo[2′,1′:3,4]pyrazino[1,2-b]pyridazin-6-yl)methyl)benzonitrile]	550 nM	300 nM	310 nM
O=c1cnn2c(c1O)-c1nccn1C[C@@H]2[C@@H](c1ccc(F)cc1)c1cccc(F)c1 [Example 24, (S)-6-((S)-(3-fluorophenyl)(4-fluorophenyl)methyl)-11-hydroxy-5,6-dihydro-10H-imidazo[2′,1′:3,4]pyrazino[1,2-b]pyridazin-10-one]	52 nM	36 nM	59 nM
O=c1ccn2c(c1O)-c1ncc(CNC3CCOCC3)n1C[C@@H]2C(c1ccccc1)c1ccccc1 [Example 65, (S)-6-benzhydryl-11-hydroxy-3-(((tetrahydro-2H-pyran-4-yl)amino)methyl)-5,6-dihydro-10H-imidazo[1,2-a]pyrido[2,1-c]pyrazin-10-one]	4800 nM	3500 nM	4900 nM
Cc1nc2n(c1C)C[C@H](C(c1ccccc1)c1ccccc1)n1ccc(=O)c(O)c1-2 [Example 14, (S)-6-benzhydryl-11-hydroxy-2,3-dimethyl-5H-imidazo[1,2-a]pyrido[2,1-c]pyrazin-10(6H)-one]	6700 nM	4200 nM	5500 nM
N#Cc1cccc([C@H](c2cccc(F)c2)[C@H]2Cn3ccnc3-c3c(O)c(=O)cnn32)c1 [Example 46, 3-((R)-(3-fluorophenyl)((S)-11-hydroxy-10-oxo-5,6-dihydro-10H-imidazo[2′,1′:3,4]pyrazino[1,2-b]pyridazin-6-yl)methyl)benzonitrile]	150 nM	64 nM	190 nM
N#Cc1cnc2n1C[C@H](C(c1ccc(F)cc1)c1ccc(F)cc1)n1ncc(=O)c(O)c1-2 [Example 49, (S)-6-(bis(4-fluorophenyl)methyl)-11-hydroxy-10-oxo-5,6-dihydro-10H-imidazo[2′,1′:3,4]pyrazino[1,2-b]pyridazine-3-carbonitrile]	870 nM	820 nM	560 nM
O=c1ccn2c(c1O)-c1nccn1C[C@@H]2C(c1ccccc1)c1ccccc1 [Example 4, (S)-6-Benzhydryl-11-hydroxy-5H-imidazo[1,2-a]pyrido[2,1-c]pyrazin-10(6H)-one]	180 nM	160 nM	90 nM
O=c1cnn2c(c1O)-c1nccn1C[C@@H]2[C@H](c1ccccc1)c1ccc(F)cc1 [Example 17, (S)-6-((R)-(4-fluorophenyl)(phenyl)methyl)-11-hydroxy-5,6-dihydro-10H-imidazo[2′,1′:3,4]pyrazino[1,2-b]pyridazin-10-one]	30 nM	10 nM	70 nM
O=c1cnn2c(c1O)-c1nccn1C[C@@H]2[C@@H](c1ccc(F)cc1)c1ccccc1Cl [Example 29, (S)-6-((S)-(2-chlorophenyl)(4-fluorophenyl)methyl)-11-hydroxy-5,6-dihydro-10H-imidazo[2′,1′:3,4]pyrazino[1,2-b]pyridazin-10-one]	70 nM	72 nM	58 nM
